Here are results for 15 molecules from PubChem BioAssay (NCI).

Molecules are shown by their SMILES.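 48-hour exposure; five concentrations; linearly interpolated endpoints. Definition used: TGI = concentration required for complete inhibition of growth.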

The first assay concerns MDA-MB-435. The assay is described as follows: NCI anticancer screen, dose series, 48 h.
Molecule `O=C1c2cccc3cccc(c23)C(=O)N1CCCNCCCNCCCCNCCCNCCCN1C(=O)c2cccc3cccc(c23)C1=O` displayed a TGI of 10.1 µM.
On the same count and under the same terms, next, `C#CC(C)(C)OC(=O)C(=[N+]=[N-])C(C)=O`: more than 10 µM.
On the same count and under the same terms, next, `Nc1nc(NCC2(CO)CC2)cc(=O)[nH]1`: more than 100 µM; `CCOC(=O)/C=C/[C@H](O[Si](CC)(CC)CC)C(C)(C)C`: more than 100 µM.
Same read-out and setting: under `Cc1ccc(-c2n[nH]c(=O)n2/N=C\c2ccc([N+](=O)[O-])cc2)cc1` stands more than 94.2 µM.
In turn, `CC(CO)CCNc1ncnc2c1ncn2CCC(=O)OC(C)(C)C` (configuration not stated) came in with a TGI of more than 100 µM.
On the same count and under the same terms, next, `Nc1nc(Cl)c(N)c(NCC2(CO)CCCC2)n1`: more than 100 µM; `COc1ccc2c(c1)nc1n2C(c2c(Cl)cccc2Cl)SC1` (configuration not stated): more than 23.6 µM; `CCOC(=O)c1c(NC(=O)OC)c(C#N)c2n1CCCCC2`: more than 100 µM.
The same measure, in the same setting: under `CN(C)c1ccc(/C=N\NC(=O)Nc2cccc3ccccc23)cc1` stands 48.3 µM; under `S=C1SSC2N=CC=CC12` (configuration not stated), 31.8 µM.
As to `CNC(=S)N=Nc1c(O)n(CN2CCOCC2)c2ccc([N+](=O)[O-])cc12`, the TGI was more than 100 µM.
Still for that read-out and setting: under `[N-]=[N+]=Nc1cc(=O)[nH]nc1-c1ccccc1` stands more than 100 µM; under `O=C(NCCCl)N(O)C(=O)Nc1ccccc1`, more than 100 µM.
Same read-out and setting: next, `O=C(/N=C/c1c(O)c2ccccc2oc1=O)Oc1ccccc1`: 66.5 µM.

The subject of another assay is 786-0 renal. The assay is described as follows: NCI anticancer screen, dose series, 48 h.
`O=C1c2cccc3cccc(c23)C(=O)N1CCCNCCCNCCCCNCCCNCCCN1C(=O)c2cccc3cccc(c23)C1=O` returned a TGI of 6.12 µM.
`C#CC(C)(C)OC(=O)C(=[N+]=[N-])C(C)=O` came in with a TGI of more than 10 µM.
As to `Nc1nc(NCC2(CO)CC2)cc(=O)[nH]1`, the TGI was more than 100 µM.
Same read-out and setting: under `CCOC(=O)/C=C/[C@H](O[Si](CC)(CC)CC)C(C)(C)C` stands more than 100 µM.
Still for that read-out and setting: under `Cc1ccc(-c2n[nH]c(=O)n2/N=C\c2ccc([N+](=O)[O-])cc2)cc1` stands more than 100 µM; under `CC(CO)CCNc1ncnc2c1ncn2CCC(=O)OC(C)(C)C` (configuration not stated), more than 100 µM; under `Nc1nc(Cl)c(N)c(NCC2(CO)CCCC2)n1`, more than 100 µM.
With `COc1ccc2c(c1)nc1n2C(c2c(Cl)cccc2Cl)SC1` (configuration not stated), the TGI is more than 100 µM.
Same read-out and setting: next, `CCOC(=O)c1c(NC(=O)OC)c(C#N)c2n1CCCCC2`: more than 100 µM; `CN(C)c1ccc(/C=N\NC(=O)Nc2cccc3ccccc23)cc1`: 51.5 µM; `S=C1SSC2N=CC=CC12` (configuration not stated): more than 100 µM.
The same measure, in the same setting: under `CNC(=S)N=Nc1c(O)n(CN2CCOCC2)c2ccc([N+](=O)[O-])cc12` stands 28.7 µM; under `[N-]=[N+]=Nc1cc(=O)[nH]nc1-c1ccccc1`, more than 100 µM; under `O=C(NCCCl)N(O)C(=O)Nc1ccccc1`, more than 100 µM.
On the same count and under the same terms, next, `O=C(/N=C/c1c(O)c2ccccc2oc1=O)Oc1ccccc1`: 85.7 µM.

The subject of another assay is HOP-92 NSCLC. The assay is described as follows: NCI anticancer screen, dose series, 48 h.
On to `O=C1c2cccc3cccc(c23)C(=O)N1CCCNCCCNCCCCNCCCNCCCN1C(=O)c2cccc3cccc(c23)C1=O`, for which the TGI is 22 µM.
Same read-out and setting: next, `C#CC(C)(C)OC(=O)C(=[N+]=[N-])C(C)=O`: more than 10 µM.
Still for that read-out and setting: under `Nc1nc(NCC2(CO)CC2)cc(=O)[nH]1` stands more than 100 µM; under `CCOC(=O)/C=C/[C@H](O[Si](CC)(CC)CC)C(C)(C)C`, more than 100 µM.
Still for that read-out and setting: next, `Cc1ccc(-c2n[nH]c(=O)n2/N=C\c2ccc([N+](=O)[O-])cc2)cc1`: more than 100 µM; `CC(CO)CCNc1ncnc2c1ncn2CCC(=O)OC(C)(C)C` (configuration not stated): more than 100 µM.
Consider `Nc1nc(Cl)c(N)c(NCC2(CO)CCCC2)n1`, for which the TGI is more than 100 µM.
Turning to `COc1ccc2c(c1)nc1n2C(c2c(Cl)cccc2Cl)SC1` (configuration not stated), the TGI is more than 100 µM.
Same read-out and setting: next, `CCOC(=O)c1c(NC(=O)OC)c(C#N)c2n1CCCCC2`: more than 100 µM.
Turning to `CN(C)c1ccc(/C=N\NC(=O)Nc2cccc3ccccc23)cc1`, the TGI is 59.5 µM.
As to `S=C1SSC2N=CC=CC12` (configuration not stated), the TGI is more than 100 µM.
For `CNC(=S)N=Nc1c(O)n(CN2CCOCC2)c2ccc([N+](=O)[O-])cc12`, the TGI came to 43.9 µM.
In turn, `[N-]=[N+]=Nc1cc(=O)[nH]nc1-c1ccccc1` yielded a TGI of more than 100 µM.
The same measure, in the same setting: under `O=C(NCCCl)N(O)C(=O)Nc1ccccc1` stands more than 100 µM.
Still for that read-out and setting: under `O=C(/N=C/c1c(O)c2ccccc2oc1=O)Oc1ccccc1` stands 79.9 µM.

The test system of a further assay is HT29 colon. The assay is described as follows: NCI anticancer screen, dose series, 48 h.
`O=C1c2cccc3cccc(c23)C(=O)N1CCCNCCCNCCCCNCCCNCCCN1C(=O)c2cccc3cccc(c23)C1=O` displayed a TGI of 5.5 µM.
On the same count and under the same terms, next, `C#CC(C)(C)OC(=O)C(=[N+]=[N-])C(C)=O`: more than 10 µM; `Nc1nc(NCC2(CO)CC2)cc(=O)[nH]1`: more than 100 µM; `CCOC(=O)/C=C/[C@H](O[Si](CC)(CC)CC)C(C)(C)C`: more than 100 µM.
The same measure, in the same setting: next, `Cc1ccc(-c2n[nH]c(=O)n2/N=C\c2ccc([N+](=O)[O-])cc2)cc1`: more than 100 µM; `CC(CO)CCNc1ncnc2c1ncn2CCC(=O)OC(C)(C)C` (configuration not stated): more than 100 µM; `Nc1nc(Cl)c(N)c(NCC2(CO)CCCC2)n1`: more than 100 µM.
Same read-out and setting: under `COc1ccc2c(c1)nc1n2C(c2c(Cl)cccc2Cl)SC1` (configuration not stated) stands 85.9 µM; under `CCOC(=O)c1c(NC(=O)OC)c(C#N)c2n1CCCCC2`, more than 100 µM; under `CN(C)c1ccc(/C=N\NC(=O)Nc2cccc3ccccc23)cc1`, more than 100 µM.
Regarding `S=C1SSC2N=CC=CC12` (configuration not stated), the TGI was more than 100 µM.
The same measure, in the same setting: next, `CNC(=S)N=Nc1c(O)n(CN2CCOCC2)c2ccc([N+](=O)[O-])cc12`: more than 100 µM; `[N-]=[N+]=Nc1cc(=O)[nH]nc1-c1ccccc1`: more than 100 µM; `O=C(NCCCl)N(O)C(=O)Nc1ccccc1`: more than 100 µM.
The same measure, in the same setting: next, `O=C(/N=C/c1c(O)c2ccccc2oc1=O)Oc1ccccc1`: more than 100 µM.

A further assay relates to UACC-257 melanoma. The assay is described as follows: NCI anticancer screen, dose series, 48 h.
In turn, `O=C1c2cccc3cccc(c23)C(=O)N1CCCNCCCNCCCCNCCCNCCCN1C(=O)c2cccc3cccc(c23)C1=O` came in with a TGI of 22.6 µM.
Still for that read-out and setting: under `C#CC(C)(C)OC(=O)C(=[N+]=[N-])C(C)=O` stands more than 10 µM.
Same read-out and setting: next, `Nc1nc(NCC2(CO)CC2)cc(=O)[nH]1`: more than 100 µM; `CCOC(=O)/C=C/[C@H](O[Si](CC)(CC)CC)C(C)(C)C`: more than 100 µM; `Cc1ccc(-c2n[nH]c(=O)n2/N=C\c2ccc([N+](=O)[O-])cc2)cc1`: more than 100 µM.
Still for that read-out and setting: next, `CC(CO)CCNc1ncnc2c1ncn2CCC(=O)OC(C)(C)C` (configuration not stated): more than 100 µM; `Nc1nc(Cl)c(N)c(NCC2(CO)CCCC2)n1`: more than 100 µM.
In turn, `COc1ccc2c(c1)nc1n2C(c2c(Cl)cccc2Cl)SC1` (configuration not stated) had a TGI of more than 100 µM.
In turn, `CCOC(=O)c1c(NC(=O)OC)c(C#N)c2n1CCCCC2` displayed a TGI of more than 100 µM.
Same read-out and setting: under `CN(C)c1ccc(/C=N\NC(=O)Nc2cccc3ccccc23)cc1` stands 34.6 µM.
On the same count and under the same terms, under `S=C1SSC2N=CC=CC12` (configuration not stated) stands more than 100 µM.
Still for that read-out and setting: under `CNC(=S)N=Nc1c(O)n(CN2CCOCC2)c2ccc([N+](=O)[O-])cc12` stands 77.6 µM.
